Each structure is given as a SMILES string.

The record followed here is paper PMC7923628 (Proceedings of the National Academy of Sciences of the …, 2021).

Test [1] addresses E3 ROC1–CUL1 CTD (Homo sapiens, UniProt Q13616). In words: FRET K48 di-Ub synthesis with ROC1–CUL1 CTD. Format: biochemical. The following applies: for blocking ubiquitination (in words): Table S2.
The target in test [2] is E3 ROC1–CUL1 CTD complex (Homo sapiens, UniProt Q13616). In words: MST ligand binding to ROC1–CUL1 CTD. The following applies: Table S2.
E3 ROC1–CUL1 CTD complex, sequence (Q13616 411-776): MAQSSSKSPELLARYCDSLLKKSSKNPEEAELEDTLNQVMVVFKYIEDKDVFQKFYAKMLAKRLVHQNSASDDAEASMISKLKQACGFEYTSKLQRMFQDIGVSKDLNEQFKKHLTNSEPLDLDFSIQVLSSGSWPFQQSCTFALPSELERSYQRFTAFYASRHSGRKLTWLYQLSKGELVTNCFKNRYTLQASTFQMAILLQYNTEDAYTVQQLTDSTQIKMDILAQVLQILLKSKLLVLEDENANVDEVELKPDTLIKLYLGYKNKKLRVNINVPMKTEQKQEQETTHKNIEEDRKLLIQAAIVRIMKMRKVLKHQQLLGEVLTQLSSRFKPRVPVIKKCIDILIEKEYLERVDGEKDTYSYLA
E3 ROC1–CUL1 CTD complex, sequence (P62877 whole entry partner): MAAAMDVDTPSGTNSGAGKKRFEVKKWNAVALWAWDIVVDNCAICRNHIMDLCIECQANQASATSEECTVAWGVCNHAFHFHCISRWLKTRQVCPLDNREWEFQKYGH
Test [3] deals with p27. In words: Immunoblot of CRL1/SCF^Skp2 substrate p27 in MV4-11 cells. It counts as cell-based, human. In general terms: A western blot detects proteins with antibodies after separation by electrophoresis.
Test [4] has as its system MV4-11 tumors. In words: AML MV4-11 subcutaneous xenograft in mice. Format: in vivo, mouse. The following applies: G5, 3 mg/kg, oral, QD.

E3 ROC1–CUL1 CTD, sequence (Q13616 411-776): as the sequence (Q13616 411-776) above
E3 ROC1–CUL1 CTD, sequence (P62877 whole entry partner): as the sequence (P62877 whole entry partner) above

As for `Cc1oc2c(O)c(O)ccc2c(=O)c1Oc1ccccc1` [33-2, 7,8-dihydroxy-2-methyl-3-phenoxy-4H-chromen-4-one], the “drop in IC50” value in test [1] (compared with 33) was “sevenfold”.

Regarding `COc1ccc2c(=O)c(Oc3ccccc3)c(C)oc2c1OC` [33-3, 7,8-dimethoxy-2-methyl-3-phenoxy-4H-chromen-4-one], in test [1], the “blocking ubiquitination (in words)” value is “completely inactive”. The “E3 binding (in words)” value in test [2] is “completely inactive”.

For `O=c1c(Oc2ccccc2)c(C(F)(F)F)oc2cc(O)ccc12` [33-7, 7-hydroxy-3-phenoxy-2-(trifluoromethyl)-4H-chromen-4-one], in test [1], the “blocking ubiquitination (in words)” value was “inactive”.

For the molecule `NS(=O)(=O)OC[C@@H]1C[C@@H](n2ccc3c(N[C@H]4CCc5ccccc54)ncnc32)C[C@@H]1O` [MLN4924], the “effect on p27 level” value in test [3] is recorded as “stabilized”.

In the case of `CNC(=O)c1cc(Oc2ccc(NC(=O)Nc3ccc(Cl)c(C(F)(F)F)c3)cc2)ccn1` [sorafenib], the tumor inhibition in test [4] is reported as 46.02%.
